Source: US4810800A, “Novel imidazole dopamine beta hydroxylase inhibitors” (Merrell Dow Pharmaceuticals Inc., priority 1988, dated 1989)
pIC50: −log10 of the molar value.

Experiments:
[1] = target: T1, dopamine beta-hydroxylase (Bos taurus, UniProt P15101); assay: in vitro DBH inhibition (conversion of tyramine to octopamine; oxygen uptake by polarographic electrode); assay type: biochemical; settings: pH of 5, 37° C. preferably
T1 sequence (P15101 1-610): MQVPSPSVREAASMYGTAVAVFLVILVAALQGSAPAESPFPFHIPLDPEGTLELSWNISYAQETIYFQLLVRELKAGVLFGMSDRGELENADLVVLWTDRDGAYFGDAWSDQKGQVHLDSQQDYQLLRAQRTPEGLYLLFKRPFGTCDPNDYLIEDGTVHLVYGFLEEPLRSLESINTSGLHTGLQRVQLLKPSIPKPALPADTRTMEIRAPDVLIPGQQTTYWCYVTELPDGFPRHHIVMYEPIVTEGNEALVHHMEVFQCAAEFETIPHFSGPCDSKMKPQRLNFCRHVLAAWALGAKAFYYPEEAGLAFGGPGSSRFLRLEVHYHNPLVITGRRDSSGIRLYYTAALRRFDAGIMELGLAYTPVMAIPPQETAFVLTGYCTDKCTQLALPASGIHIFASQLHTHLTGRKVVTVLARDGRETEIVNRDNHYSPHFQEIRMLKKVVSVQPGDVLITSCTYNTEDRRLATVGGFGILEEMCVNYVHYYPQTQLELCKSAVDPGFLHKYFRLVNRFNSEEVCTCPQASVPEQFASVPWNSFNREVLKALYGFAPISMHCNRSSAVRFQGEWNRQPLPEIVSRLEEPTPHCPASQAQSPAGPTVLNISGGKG
Procedure: The DBH inhibitory properties of the compounds of this invention can readily be determined in vitro by standard and well known procedures for assaying conversion of tyramine to octopamine in the presence of dopamine beta-hydroxylase. Enzymatic oxygenation by DBH is determined in aqueous solution in the presence of molecular oxygen, an electron donor such as ascorbate, and the necessary cofactors for the enzyme at pH of 5 and a temperature of 20°-40° C., preferably 37° C. The test compound is added at the desired concentration, and the system is incubated. Activity is measured by measuring the oxygen uptake using a polarographic electrode and an oxygen monitor by the method of S. May, et al., J. Biol. Chem. 256, 2258 (1981). Inhibition is given in molar concentration of compound at which DBH activity was halved (IC50) when the test compounds were tested according to the above described procedure. The IC50 (expressed in micromolar units) data of some of the compounds of this invention are expressed in Table I.

[2] = system: spontaneously hypertensive rats; assay: antihypertensive effect: blood pressure monitored continuously in spontaneously hypertensive rats after ip dosing; assay type: in vivo; settings: 50 mg/kg, 6 hours post dose in SHR, Mean Difference ± Standard Deviation
Procedure: The ability of the compounds of this invention to lower blood pressure can be determined in vivo using spontaneously hypertensive rats (SHR'S) according to standard and well known procedures. The test compound is administered intraperitoneally (ip) to rats and the blood pressure monitored continuously. Snce DBH is a major enzyme in the synthetic pathway of the catecholamines, it would be expected that the presence of an inhibitor would act to decrease the amount of catecholamines produced, and thereby have an antihypertensive effect. The results of the testing for this antihypertensive effect are shown in Table I (MBP is mean blood pressure).
In Vivo at 50 mg/kg, IP, 6 Hours Post Dose in SHR's*

SMILES	pIC50 [1]	Max Change MBP (mean blood pressure) [2] [mmHg]
NCc1nccn1Cc1cccs1 [Compound 1, 2-Aminomethyl-1-(2-thienylmethyl)-1H-imidazole]	4.89	-41 ± 14
NC(=S)c1nccn1Cc1cccs1 [Compound 2, 1-(2-Thienylmethyl)-2-thiocarbamyl-1H-imidazole]	5.33	-25 ± 12
